Converted amounts (≈) assume the structure as drawn.
Legend:
Test in all cases: MIC, broth micro dilution assay (NCCLS)
Format in all cases: cell-based
[1] = system: Staphylococcus aureus A15090; conditions: Mueller-Hinton medium, 35° C., 18 hours
Method in brief: (§1)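 Broth microdilution in Mueller-Hinton medium, with a final inoculum of about 5×10^5 cfu/well. Plates incubated at 35 °C for 18 hours in ambient air. MIC = lowest drug concentration preventing visible growth.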

[2] = system: Enterococcus faecalis A20688; conditions: Mueller-Hinton medium, 35° C., 18 hours
Method in brief: as §1

[3] = system: Streptococcus pneumoniae A28272; conditions: 50% Mueller-Hinton medium and 50% Todd Hewitt medium, 35° C., 18 hours

Compound	MIC (μg/mL) Staphylococcus aureus A15090 [1] [µg/mL]	MIC (μg/mL) Enterococcus faecalis A20688 [2] [µg/mL]	MIC (μg/mL) Streptococcus pneumoniae A28272 [3] [µg/mL]
C=C(NC(=O)c1csc(-c2nc3c(cc2OP(=O)(O)OCCCl)-c2nc(cs2)C(=O)NC(C(C)O)C(=O)NC(=C(C)OC)c2nc(cs2)C(=O)NC2c4nc(cs4)C(=O)NC(COC(=O)c4c5c6c(cccc6n4O)COC(=O)C(OC4CC(C)(O)C(N(C)C)C(C)O4)C2OC5)c2nc-3cs2)n1)C(N)=O (stereo not drawn) [Example 35]	1.0 (≈ 0.633 µM)	1.0 (≈ 0.633 µM)	0.03 (≈ 0.019 µM)
C=C(NC(=O)c1csc(-c2nc3c(cc2OCC(=O)O)-c2nc(cs2)C(=O)NC(C(C)O)C(=O)NC(=C(C)OC)c2nc(cs2)C(=O)NC2c4nc(cs4)C(=O)NC(COC(=O)c4c5c6c(cccc6n4OCC(=O)O)COC(=O)C(OC4CC(C)(O)C(N(C)C)C(C)O4)C2OC5)c2nc-3cs2)n1)C(N)=O.O=C(O)C(F)(F)F (stereo not drawn) [Example 20]	16	>128	0.5

Source: US7022667B2, “O-derivatized nocathiacin derivatives” (Bristol-Myers Squibb Company, priority 2002, dated 2006)
